For orientation: IC50 means the concentration that inhibits the measured activity by half. Read a low IC50 as greater potency. In general, Kd refers to the free concentration of one partner at which half of the binding sites on the other are occupied at equilibrium, for simple one-to-one binding. A higher Kd goes with lower affinity.

One assay concerns the target HIPK1 (human) (UniProt Q86Z02). In words: SelectScreen, TR FRET. For orientation: TR-FRET usually uses a lanthanide donor and a delayed reading to cut background.
Assay [1] deals with HIPK2 (human) (UniProt Q9H2X6). In words: SelectScreen, TR FRET.
The target of a further assay is MARK4 (human) (UniProt Q96L34). Kind of assay: KINOMEscan competition binding. The settings on record: compound 10.0 µM.
Assay [2] concerns ABL1 (human), P00519 [E255K]. In words: KINOMEscan competition binding. Conditions: compound 10.0 µM.
The next assay has as its target FGR (human) (UniProt P09769). Kind of assay: KINOMEscan competition binding. The settings on record: compound 10.0 µM.
A further assay concerns the target HCK (human) (UniProt P08631). Kind of assay: KINOMEscan competition binding. Conditions: compound 10.0 µM.
The target in the next assay is MAPK4 (human) (UniProt P31152). In words: KINOMEscan competition binding. The settings on record: compound 10.0 µM.
The target in the next assay is DYRK2 (human) (UniProt Q92630). In words: KINOMEscan competition binding.
The target in another assay is CDK3 (human) (UniProt Q00526). Kind of assay: KINOMEscan competition binding. Conditions: compound 10.0 µM.
The target in a further assay is FLT1 (human) (UniProt P17948). In words: KINOMEscan competition binding. The settings on record: compound 10.0 µM.
In a further assay the target is STK4 (human) (UniProt Q13043). Kind of assay: KINOMEscan competition binding. Conditions: compound 10.0 µM.
Another assay deals with FGFR4 (human) (UniProt P22455). Kind of assay: KINOMEscan competition binding. Conditions: compound 10.0 µM.
The target of a further assay is CAMK2G (human) (UniProt Q13555). In words: KINOMEscan competition binding. The settings on record: compound 10.0 µM.
For a further assay, the target named is MAPK9 (human) (UniProt P45984). Kind of assay: KINOMEscan competition binding. Conditions: compound 10.0 µM.
The target in a further assay is RIPK1 (human) (UniProt Q13546). In words: KINOMEscan competition binding. Conditions: compound 10.0 µM.
The target of another assay is DYRK1A (human) (UniProt Q13627). Kind of assay: KINOMEscan competition binding.
The next assay concerns the target DDR2 (human) (UniProt Q16832). Kind of assay: KINOMEscan competition binding. Conditions: compound 10.0 µM.
The target in a further assay is TESK1 (human) (UniProt Q15569). Kind of assay: KINOMEscan competition binding. Conditions: compound 10.0 µM.
Assay [3] addresses HIPK2 (human) (UniProt Q9H2X6). In words: KINOMEscan competition binding.
For a further assay, the target named is AURKC (human) (UniProt Q9UQB9). In words: SelectScreen, TR FRET.
The next assay concerns the target AURKB (human) (UniProt Q96GD4). In words: SelectScreen, TR FRET.
Assay [4] deals with BRAF (human), P15056 [V600E]. In words: KINOMEscan competition binding. Conditions: compound 10.0 µM.
The next assay concerns the target BRAF (human) (UniProt P15056). Kind of assay: KINOMEscan competition binding. Conditions: compound 10.0 µM.

Sequence of CAMK2G (human) (Q13555 whole entry, looked up): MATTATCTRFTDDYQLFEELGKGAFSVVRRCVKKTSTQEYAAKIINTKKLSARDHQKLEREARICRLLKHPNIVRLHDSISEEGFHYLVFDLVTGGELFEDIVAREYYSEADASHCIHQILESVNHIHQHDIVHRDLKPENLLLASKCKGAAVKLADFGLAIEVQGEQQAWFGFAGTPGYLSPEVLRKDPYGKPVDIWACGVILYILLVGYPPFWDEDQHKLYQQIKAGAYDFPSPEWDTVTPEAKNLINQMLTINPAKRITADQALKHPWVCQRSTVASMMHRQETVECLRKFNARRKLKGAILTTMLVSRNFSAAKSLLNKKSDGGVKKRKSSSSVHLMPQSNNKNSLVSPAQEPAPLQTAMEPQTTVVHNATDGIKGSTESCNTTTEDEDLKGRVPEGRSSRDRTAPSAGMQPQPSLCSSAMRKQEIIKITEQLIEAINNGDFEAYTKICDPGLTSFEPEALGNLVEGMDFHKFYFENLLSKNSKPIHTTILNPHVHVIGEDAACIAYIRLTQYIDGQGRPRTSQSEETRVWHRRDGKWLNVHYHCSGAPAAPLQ
Sequence of MAPK9 (human) (P45984 whole entry, looked up): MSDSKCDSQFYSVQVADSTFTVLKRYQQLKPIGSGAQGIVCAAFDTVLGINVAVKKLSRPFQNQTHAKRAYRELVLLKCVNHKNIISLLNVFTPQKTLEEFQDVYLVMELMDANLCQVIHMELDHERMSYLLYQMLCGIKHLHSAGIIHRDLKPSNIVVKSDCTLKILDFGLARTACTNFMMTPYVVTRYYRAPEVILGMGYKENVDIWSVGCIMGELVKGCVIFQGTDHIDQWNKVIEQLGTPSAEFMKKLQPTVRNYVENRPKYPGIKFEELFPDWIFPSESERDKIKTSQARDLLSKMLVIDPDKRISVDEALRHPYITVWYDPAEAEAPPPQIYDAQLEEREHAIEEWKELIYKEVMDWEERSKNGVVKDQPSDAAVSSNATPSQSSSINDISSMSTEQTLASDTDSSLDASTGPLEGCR
Sequence of FGR (human) (P09769 whole entry, looked up): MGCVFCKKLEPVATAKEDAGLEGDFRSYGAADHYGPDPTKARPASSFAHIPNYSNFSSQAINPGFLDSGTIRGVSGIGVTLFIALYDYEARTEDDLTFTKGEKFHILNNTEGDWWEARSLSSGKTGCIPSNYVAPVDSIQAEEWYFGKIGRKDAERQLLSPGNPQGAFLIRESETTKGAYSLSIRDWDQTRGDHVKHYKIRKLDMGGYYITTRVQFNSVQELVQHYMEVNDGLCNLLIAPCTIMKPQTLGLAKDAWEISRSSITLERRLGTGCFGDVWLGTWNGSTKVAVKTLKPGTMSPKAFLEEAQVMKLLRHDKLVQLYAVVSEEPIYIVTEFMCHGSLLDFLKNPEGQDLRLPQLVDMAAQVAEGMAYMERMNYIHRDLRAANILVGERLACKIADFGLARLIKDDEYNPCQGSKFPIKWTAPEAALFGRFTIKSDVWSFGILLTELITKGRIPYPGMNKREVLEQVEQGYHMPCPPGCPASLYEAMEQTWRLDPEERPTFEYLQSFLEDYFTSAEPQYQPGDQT
Sequence of STK4 (human) (Q13043 whole entry, looked up): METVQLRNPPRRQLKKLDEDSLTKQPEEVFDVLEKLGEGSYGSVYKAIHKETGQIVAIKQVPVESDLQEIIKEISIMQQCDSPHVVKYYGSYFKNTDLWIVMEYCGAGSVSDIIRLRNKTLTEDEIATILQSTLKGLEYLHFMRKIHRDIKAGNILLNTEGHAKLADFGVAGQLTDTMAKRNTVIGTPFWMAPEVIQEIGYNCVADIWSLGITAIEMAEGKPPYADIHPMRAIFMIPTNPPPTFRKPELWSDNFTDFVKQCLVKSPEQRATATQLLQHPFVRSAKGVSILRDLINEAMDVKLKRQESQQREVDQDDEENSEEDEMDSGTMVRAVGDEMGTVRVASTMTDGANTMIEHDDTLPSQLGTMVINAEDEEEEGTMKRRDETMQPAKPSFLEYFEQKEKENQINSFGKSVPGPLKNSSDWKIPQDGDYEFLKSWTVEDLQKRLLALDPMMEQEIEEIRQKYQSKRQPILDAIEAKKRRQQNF
Sequence of HIPK2 (human) (Q9H2X6 whole entry, looked up): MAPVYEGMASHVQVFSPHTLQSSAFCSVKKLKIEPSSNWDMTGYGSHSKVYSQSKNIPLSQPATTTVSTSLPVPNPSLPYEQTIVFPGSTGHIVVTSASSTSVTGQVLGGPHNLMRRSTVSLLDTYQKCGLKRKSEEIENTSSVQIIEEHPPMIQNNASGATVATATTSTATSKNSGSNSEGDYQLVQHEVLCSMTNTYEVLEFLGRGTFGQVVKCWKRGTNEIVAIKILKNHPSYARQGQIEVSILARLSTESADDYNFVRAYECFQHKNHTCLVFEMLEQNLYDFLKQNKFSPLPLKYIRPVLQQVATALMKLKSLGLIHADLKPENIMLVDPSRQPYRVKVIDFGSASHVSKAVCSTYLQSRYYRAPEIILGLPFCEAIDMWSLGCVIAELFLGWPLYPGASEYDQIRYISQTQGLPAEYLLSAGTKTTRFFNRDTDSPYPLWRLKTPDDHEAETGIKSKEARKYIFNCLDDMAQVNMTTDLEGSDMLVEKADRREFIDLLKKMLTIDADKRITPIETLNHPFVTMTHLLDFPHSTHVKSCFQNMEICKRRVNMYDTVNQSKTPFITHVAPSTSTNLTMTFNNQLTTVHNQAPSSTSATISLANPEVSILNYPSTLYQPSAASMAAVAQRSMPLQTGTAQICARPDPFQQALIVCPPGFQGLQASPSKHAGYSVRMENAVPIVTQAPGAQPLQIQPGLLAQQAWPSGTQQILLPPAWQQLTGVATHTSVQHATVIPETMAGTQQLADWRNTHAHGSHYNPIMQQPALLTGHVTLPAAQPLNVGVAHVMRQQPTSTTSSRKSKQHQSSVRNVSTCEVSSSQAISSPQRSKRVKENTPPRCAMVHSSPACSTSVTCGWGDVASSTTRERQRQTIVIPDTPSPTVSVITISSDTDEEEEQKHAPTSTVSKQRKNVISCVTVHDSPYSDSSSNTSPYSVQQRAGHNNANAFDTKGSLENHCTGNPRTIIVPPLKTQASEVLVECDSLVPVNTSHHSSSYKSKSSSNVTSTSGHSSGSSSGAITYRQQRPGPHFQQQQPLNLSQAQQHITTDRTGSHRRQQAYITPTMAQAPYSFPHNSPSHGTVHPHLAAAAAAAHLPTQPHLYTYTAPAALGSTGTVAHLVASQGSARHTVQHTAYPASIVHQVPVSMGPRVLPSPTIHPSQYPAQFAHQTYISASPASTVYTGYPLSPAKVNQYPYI
Sequence of MARK4 (human) (Q96L34 whole entry, looked up): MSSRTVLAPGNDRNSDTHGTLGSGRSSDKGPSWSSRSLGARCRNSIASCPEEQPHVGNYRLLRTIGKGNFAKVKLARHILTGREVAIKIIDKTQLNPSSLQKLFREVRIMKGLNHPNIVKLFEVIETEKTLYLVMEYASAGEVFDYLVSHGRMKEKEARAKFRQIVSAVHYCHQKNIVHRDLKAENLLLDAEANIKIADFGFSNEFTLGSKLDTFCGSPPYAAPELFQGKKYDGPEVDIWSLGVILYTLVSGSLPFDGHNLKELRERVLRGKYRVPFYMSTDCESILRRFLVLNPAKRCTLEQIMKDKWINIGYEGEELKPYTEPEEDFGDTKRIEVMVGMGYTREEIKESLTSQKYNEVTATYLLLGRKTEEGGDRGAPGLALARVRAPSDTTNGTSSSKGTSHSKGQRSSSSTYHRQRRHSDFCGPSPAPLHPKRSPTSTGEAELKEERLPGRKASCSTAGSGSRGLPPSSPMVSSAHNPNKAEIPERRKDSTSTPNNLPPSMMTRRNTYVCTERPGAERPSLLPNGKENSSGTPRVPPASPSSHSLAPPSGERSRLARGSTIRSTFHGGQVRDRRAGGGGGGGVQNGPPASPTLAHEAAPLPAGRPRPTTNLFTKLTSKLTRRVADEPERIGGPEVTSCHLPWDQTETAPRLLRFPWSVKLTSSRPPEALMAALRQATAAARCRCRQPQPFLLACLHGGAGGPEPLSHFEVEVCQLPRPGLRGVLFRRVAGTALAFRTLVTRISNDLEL
Sequence of HCK (human) (P08631 whole entry, looked up): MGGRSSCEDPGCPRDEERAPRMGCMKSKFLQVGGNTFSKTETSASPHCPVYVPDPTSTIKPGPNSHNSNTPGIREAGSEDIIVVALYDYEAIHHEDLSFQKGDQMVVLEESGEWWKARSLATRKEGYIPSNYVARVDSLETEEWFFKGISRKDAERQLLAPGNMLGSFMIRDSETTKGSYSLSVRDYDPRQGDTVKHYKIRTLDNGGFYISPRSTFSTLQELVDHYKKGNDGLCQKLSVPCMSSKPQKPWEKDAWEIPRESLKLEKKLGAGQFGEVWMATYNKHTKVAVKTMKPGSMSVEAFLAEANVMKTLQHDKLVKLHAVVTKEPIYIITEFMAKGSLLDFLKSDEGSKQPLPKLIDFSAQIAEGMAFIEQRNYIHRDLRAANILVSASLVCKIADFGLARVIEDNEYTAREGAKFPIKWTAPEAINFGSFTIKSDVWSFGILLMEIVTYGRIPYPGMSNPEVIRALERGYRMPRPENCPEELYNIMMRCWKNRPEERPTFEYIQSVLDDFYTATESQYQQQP
Sequence of CDK3 (human) (Q00526 whole entry, looked up): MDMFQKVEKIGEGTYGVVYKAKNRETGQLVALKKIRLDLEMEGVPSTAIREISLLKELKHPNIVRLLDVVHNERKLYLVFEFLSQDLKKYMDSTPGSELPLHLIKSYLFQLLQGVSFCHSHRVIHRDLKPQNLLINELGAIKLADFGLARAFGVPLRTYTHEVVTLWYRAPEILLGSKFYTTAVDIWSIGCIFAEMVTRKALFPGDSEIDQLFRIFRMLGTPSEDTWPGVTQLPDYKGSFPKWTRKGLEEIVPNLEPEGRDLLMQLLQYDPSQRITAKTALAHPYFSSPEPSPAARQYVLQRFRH

With `O=C1NC(=O)/C(=C/c2c[nH]c(=O)c(-c3ccc(N4CCNCC4)nc3)c2)S1`, the half-maximal inhibitory concentration (IC50) against HIPK1 (human) amounted to 136 nM; on HIPK2 (human) [1] it was 74 nM. The kinase still bound, per cent of control at MARK4 (human) was 100%; in assay [2], 94%; on FGR (human) it was 84%; at HCK (human) it was 100%; on MAPK4 (human), 100%; on CDK3 (human), 100%. Further, the kinase still bound, per cent of control on FLT1 (human) came to 93%; at STK4 (human), 96%; on FGFR4 (human), 93%; on CAMK2G (human) it was 65%; on MAPK9 (human) it was 100%; at RIPK1 (human), 82%. In addition, the kinase still bound, per cent of control at DDR2 (human) and on TESK1 (human) was 100% each time. The Kd at DYRK2 (human) was found to be 250 nM; on DYRK1A (human) it was 8.8 nM; on HIPK2 (human) [3], 9.5 nM.

In the case of `N=C1NC(=O)/C(=C/c2ccc(-c3cncc4ccccc34)o2)S1`, the results for the IC50 at AURKC (human) and on AURKB (human) were 154 nM and 29 nM, respectively. In addition, the values for the kinase still bound, per cent of control at CAMK2G (human) and at MAPK9 (human) were 11% and 14%, respectively.

`CN1C(=O)c2ccccc2N(C)c2nc(Nc3ccc(N4CCC(O)CC4)cc3)ncc21`: the kinase still bound, per cent of control at MARK4 (human) was 66%; in [2] it was 0.6%; on FGR (human), 6.6%; at HCK (human), 35%; at MAPK4 (human), 100%; in assay [4], 100%. Moreover, the kinase still bound, per cent of control on CDK3 (human) worked out at 100%; on FLT1 (human), 94%; at STK4 (human) it was 80%; at FGFR4 (human), 73%; at CAMK2G (human) it was 100%; at MAPK9 (human) it was 100%. Further, the kinase still bound, per cent of control at RIPK1 (human) was 100%; on BRAF (human) it was 94%; at DDR2 (human), 96%; at TESK1 (human) it was 97%.

The record behind these values is the kinase profiling compilation of Christmann-Franck et al. (2016).
